Experimental data as given in PubChem BioAssay (NCI).
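Growth conditions: 96-well plates. Treatment: test compound, 48 hours, 5 concentrations. Analysis: linear interpolation between bracketing concentrations; unreached endpoints set to highest concentration. GI50 = concentration required for 50% inhibition of growth. The concentration for full growth arrest is given as TGI.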

Tests used:
Experiment in all cases: inhibition of tumour cell growth, NCI panel, 48 h
[1] = tested on: KM12 colon
[2] = tested on: SR leukemia
[3] = tested on: SK-MEL-28 melanoma
[4] = tested on: OVCAR-8 ovarian
[5] = tested on: TK-10 renal
[6] = tested on: U251 CNS
[7] = tested on: HOP-92 NSCLC
[8] = tested on: SNB-75 CNS
[9] = tested on: SK-OV-3 ovarian
[10] = tested on: NCI-H460 lung
[11] = tested on: HL-60(TB) leukemia
[12] = tested on: CCRF-CEM leukemia
[13] = tested on: CAKI-1 renal
[14] = tested on: HCC-2998 colon
[15] = tested on: RPMI-8226 leukemia
[16] = tested on: HCT-116 colon
[17] = tested on: MDA-MB-231 breast
[18] = tested on: OVCAR-3 ovarian
[19] = tested on: SW-620 colon
[20] = tested on: SF-539 CNS
[21] = tested on: EKVX NSCLC
[22] = tested on: DU-145 prostate
[23] = tested on: LOX IMVI melanoma
[24] = tested on: SK-MEL-5 melanoma
[25] = tested on: PC-3 prostate
[26] = tested on: T-47D breast
[27] = tested on: MDA-MB-435
[28] = tested on: OVCAR-4 ovarian
[29] = tested on: HT29 colon
[30] = tested on: M14 melanoma
[31] = tested on: SNB-19 CNS
[32] = tested on: HCT-15 colon
[33] = tested on: SN12C renal
[34] = tested on: NCI-H522 lung
[35] = tested on: A549 NSCLC
[36] = tested on: COLO 205 colon
[37] = tested on: NCI/ADR-RES ovarian
[38] = tested on: ACHN renal
[39] = tested on: UACC-62 melanoma
[40] = tested on: K-562 leukemia
[41] = tested on: OVCAR-5 ovarian
[42] = tested on: 786-0 renal
[43] = tested on: UO-31 renal
[44] = tested on: BT-549 breast
[45] = tested on: MOLT-4 leukemia
[46] = tested on: MCF7 breast
[47] = tested on: MALME-3M melanoma
[48] = tested on: SF-268 CNS
[49] = tested on: HS 578T breast
[50] = tested on: SF-295 CNS
[51] = tested on: NCI-H226 lung
[52] = tested on: HOP-62 NSCLC
[53] = tested on: IGROV1 ovarian
[54] = tested on: SK-MEL-2 melanoma
[55] = tested on: NCI-H23 lung

In the case of `NS(=O)(=O)NCCNc1nonc1C(=Nc1ccc(F)c(Br)c1)NO`, the GI50 [1] is reported as 34.8 µM, the TGI [1] is reported as > 100 µM and the GI50 [2] is reported as 30.2 µM. The TGI [2] was > 100 µM, the GI50 [3] was 48.3 µM and the TGI [3] was > 100 µM. For the same compound, the GI50 [4] was 56.5 µM, the TGI [4] was > 100 µM and the GI50 [5] was 29.8 µM. For the same compound, the TGI [5] was > 100 µM, the GI50 [6] was 53.1 µM and the TGI [6] was > 100 µM. For the same compound, the GI50 [7] was 23.6 µM, the TGI [7] was 86.2 µM and the GI50 [8] was 15.2 µM. For the same compound, the TGI [8] was > 100 µM, the GI50 [9] was 67.4 µM and the TGI [9] was > 100 µM. For the same compound, the GI50 [10] was 35.9 µM, the TGI [10] was > 100 µM and the GI50 [11] was 36.9 µM. For the same compound, the TGI [11] was > 100 µM, the GI50 [12] was 49.8 µM and the TGI [12] was > 100 µM. For the same compound, the GI50 [13] was 33.8 µM, the TGI [13] was > 100 µM and the GI50 [14] was 27.4 µM. The TGI [14] was 77.5 µM, the GI50 [15] was 37.9 µM and the TGI [15] was > 100 µM. The GI50 [16] was 42.6 µM, the TGI [16] was > 100 µM and the GI50 [17] was 34 µM. The TGI [17] was > 100 µM, the GI50 [18] was 34.6 µM and the TGI [18] was > 100 µM. The GI50 [19] was 51.1 µM, the TGI [19] was > 100 µM and the GI50 [20] was 37.5 µM. The TGI [20] was > 100 µM, the GI50 [21] was 34.8 µM and the TGI [21] was > 100 µM. The GI50 [22] was 51.2 µM, the TGI [22] was > 100 µM and the GI50 [23] was 27.9 µM. The TGI [23] was > 100 µM, the GI50 [24] was 31.9 µM and the TGI [24] was > 100 µM. The GI50 [25] was 31.8 µM, the TGI [25] was > 100 µM and the GI50 [26] was 35.1 µM. For the same compound, the TGI [26] was > 100 µM, the GI50 [27] was 32 µM and the TGI [27] was > 100 µM. The GI50 [28] was 32.8 µM, the TGI [28] was > 100 µM and the GI50 [29] was 66 µM. The TGI [29] was > 100 µM, the GI50 [30] was 28.1 µM and the TGI [30] was > 100 µM. For the same compound, the GI50 [31] was 48.2 µM, the TGI [31] was > 100 µM and the GI50 [32] was 39.4 µM. For the same compound, the TGI [32] was > 100 µM, the GI50 [33] was 41.3 µM and the TGI [33] was > 100 µM. For the same compound, the GI50 [34] was 36.2 µM, the TGI [34] was 97.5 µM and the GI50 [35] was 68.9 µM. For the same compound, the TGI [35] was > 100 µM, the GI50 [36] was 47.6 µM and the TGI [36] was > 100 µM. The GI50 [37] was > 100 µM, the TGI [37] was > 100 µM and the GI50 [38] was 31.2 µM. For the same compound, the TGI [38] was > 100 µM, the GI50 [39] was 25.9 µM and the TGI [39] was > 100 µM. For the same compound, the GI50 [40] was 35.4 µM, the TGI [40] was > 100 µM and the GI50 [41] was 69.4 µM. The TGI [41] was > 100 µM, the GI50 [42] was 48.8 µM and the TGI [42] was > 100 µM. The GI50 [43] was 24.8 µM, the TGI [43] was > 100 µM and the GI50 [44] was 40.9 µM. The TGI [44] was > 100 µM, the GI50 [45] was 30.8 µM and the TGI [45] was > 100 µM. The GI50 [46] was 32.9 µM, the TGI [46] was > 100 µM and the GI50 [47] was 28.5 µM. For the same compound, the TGI [47] was > 100 µM, the GI50 [48] was 38.8 µM and the TGI [48] was > 100 µM. The GI50 [49] was 30.3 µM, the TGI [49] was > 100 µM and the GI50 [50] was 27 µM. The TGI [50] was > 100 µM, the GI50 [51] was 47.7 µM and the TGI [51] was > 100 µM. For the same compound, the GI50 [52] was > 100 µM, the TGI [52] was > 100 µM and the GI50 [53] was 52.3 µM. For the same compound, the TGI [53] was > 100 µM, the GI50 [54] was 27.8 µM and the TGI [54] was 97 µM. For the same compound, the GI50 [55] was 28.9 µM and the TGI [55] was > 100 µM.
